Assay: solvent given as SMILES

CC(C)(C)Nc1oc(C=Cc2ccccc2)c(C(=O)OC(C)(C)C)c1C(=O)OC(C)(C)C
absorption maximum (in CC#N): 384 nm

CCOC(=O)c1c2c3c(ccc(OC)c3c3cc4c(cc13)[Si](C)(C)O[Si]4(C)C)N(C)C2=O
absorption maximum (in CC#N): 378 nm

Cc1cc(C)c(B(c2cc3c4c(c(B(c5c(C)cc(C)cc5C)c5c(C)cc(C)cc5C)cc5c4c2CCC5)CCC3)c2c(C)cc(C)cc2C)c(C)c1
absorption maximum (in CCCCCC): 420 nm

COc1nc(Nc2ccc3c4cccc5cccc(c6cccc2c63)c54)nc(OC)n1
absorption maximum (in C1COCCO1): 443 nm | absorption maximum (in CC#N): 444 nm | absorption maximum (in CCCCOCCCC): 442 nm | absorption maximum (in CCOC(C)=O): 441 nm

COC(=O)c1cc(=O)n(C)c2cc(-c3ccc(N(C)C)cc3)sc12
absorption maximum (in CC#N): 428 nm | absorption maximum (in ClCCl): 434 nm

CCCCCCc1cc2/c(=C(\C#N)C(=O)OC)s/c(=c3/s/c(=C(/C#N)C(=O)OC)c4cc(CCCCCC)sc34)c2s1
absorption maximum (in Cc1ccccc1): 580 nm

F[B-]1(F)OC(c2ccccc2)=Cc2c3ccccc3c3ccccc3[n+]21
absorption maximum (in ClC(Cl)Cl): 432 nm

F[B-]1(F)n2c(c3cccc4cccc2c43)=Nc2cccc[n+]21
absorption maximum (in C1CCOC1): 468 nm | absorption maximum (in CC#N): 460 nm | absorption maximum (in CCCCCC): 473 nm | absorption maximum (in Cc1ccccc1): 472 nm | absorption maximum (in ClCCl): 438 nm

CCC(CC)COC1=CC2=C3c4cc(OCC(CC)CC)c(-c5ccccc5)n4[B-](F)(F)[n+]4nnn(c43)[B-](F)(F)[N+]2=C1c1ccccc1
absorption maximum (in C1CCOC1): 691 nm | absorption maximum (in CC#N): 687 nm | absorption maximum (in ClCCl): 700 nm

COc1ccc(N(c2ccc(OC)cc2)c2ccc(-c3ccc(C=C(C#N)C#N)cc3)cc2)cc1
absorption maximum (in ClC(Cl)Cl): 483 nm

COc1ccc(-c2cnc(/C=C/c3ccc(OC)c(OC)c3)o2)cc1
absorption maximum (in ClCCl): 360 nm

c1ccc(-c2nc(-c3ccccc3)nc(-c3ccc(-n4c5ccccc5c5cc6c(cc54)C4c5ccccc5C6c5ccccc54)cc3)n2)cc1
absorption maximum (in Cc1ccccc1): 373 nm

CCCCCCCCN1c2ccc(C#Cc3ccc(F)cc3)cc2Sc2cc(C=O)ccc21
absorption maximum (in C1CCOC1): 378 nm | absorption maximum (in CC#N): 380.01 nm | absorption maximum (in CCCCCC): 376 nm | absorption maximum (in CO): 350 nm | absorption maximum (in CS(C)=O): 388 nm | absorption maximum (in Cc1ccccc1): 381.99 nm | absorption maximum (in ClC(Cl)Cl): 391.99 nm

CCCCOc1c(-c2c(OCCCC)c3oc4cc5ccccc5cc4c3c3ccccc23)c2ccccc2c2c1oc1cc3ccccc3cc12
absorption maximum (in C1CCOC1): 366 nm

CCOCCC1=Cc2nc1ccc1[nH]c(cc1CCOCC)c1nc(ccc3[nH]c2cc3CCOCC)C(CCOCC)=C1
absorption maximum (in Cc1ccccc1): 638 nm

N#Cc1cc(C#N)c(-c2ccc(N(c3ccccc3)c3ccccc3)cc2)cc1-c1ccc(N(c2ccccc2)c2ccccc2)cc1
absorption maximum (in Cc1ccccc1): 394 nm

C(#Cc1ccc(C#Cc2ccc(C#Cc3ccccc3)cc2)cc1)c1ccccc1
absorption maximum (in ClC(Cl)Cl): 345 nm

CCCCCc1ccc(C#Cc2cc(C#Cc3ccc(CCCCC)cc3)c3ccc4c(C(=O)c5ccccc5)cc(C#Cc5ccc(CCCCC)cc5)c5ccc2c3c54)cc1
absorption maximum (in ClCCl): 457 nm

CCOC(=O)/N=c1/oc2cc(N(CC)CC)ccc2cc1C#N
absorption maximum (in ClCCl): 440 nm

CCCCC(CC)Cn1c2cc(C#N)ccc2c2ccc(C#Cc3cc(C#Cc4ccc5c6ccc(C#N)cc6n(CC(CC)CCCC)c5c4)c4ccc5c(C#Cc6ccc7c8ccc(C#N)cc8n(CC(CC)CCCC)c7c6)cc(C#Cc6ccc7c8ccc(C#N)cc8n(CC(CC)CCCC)c7c6)c6ccc3c4c65)cc21 (centres undefined)
absorption maximum (in ClCCl): 467 nm

CCCCn1c(-c2ccc(-c3nnc(-c4ccc(-c5nc6c7ccccc7c7ccccc7c6n5CCCC)cc4)o3)cc2)nc2c3ccccc3c3ccccc3c21
absorption maximum (in ClCCl): 366 nm

COc1ccc(-c2csc(/C(C#N)=C/c3ccc([N+](=O)[O-])cc3)n2)cc1
absorption maximum (in CC#N): 399 nm

C1=Cc2ccc(N(c3ccccc3)c3cccc4ccccc34)cc2C2(c3cc(N(c4ccccc4)c4cccc5ccccc45)ccc31)c1ccccc1-c1ccccc12
absorption maximum (in ClCCl): 403 nm

CN(C)c1ccc(C#Cc2ncnc3ccccc23)cc1
absorption maximum (in ClCCl): 384 nm

CN(C)c1ccc2cc(C3=[O+][B-](F)(F)OC(c4ccc(C#N)cc4)=C3)ccc2c1
absorption maximum (in C1CCOC1): 525 nm | absorption maximum (in CC#N): 539 nm | absorption maximum (in CC(C)=O): 533 nm | absorption maximum (in CS(C)=O): 559 nm | absorption maximum (in Cc1ccccc1): 519 nm | absorption maximum (in ClC(Cl)Cl): 532 nm | absorption maximum (in ClCCl): 539 nm

O=C1CC(=O)Nc2cc(Br)ccc2N1
absorption maximum (in CS(C)=O): 299 nm

CC1(C)c2ccccc2N(c2ccc(-c3cccc(C#N)c3)cc2)c2ccccc21
absorption maximum (in Cc1ccccc1): 344 nm

CCCCCCN(CCCCCC)c1ccc(C#Cc2ccc(C(F)(F)F)cc2)cc1
absorption maximum (in CO): 356 nm | absorption maximum (in ClCCl): 362 nm

CN(C)c1ccc(-c2cc(-c3ccc(C#N)cc3)nn2C)cc1
absorption maximum (in C1CCCCC1): 288 nm | absorption maximum (in CC#N): 292 nm | absorption maximum (in CCOC(C)=O): 290 nm | absorption maximum (in CCOCC): 289 nm | absorption maximum (in CN(C)C=O): 295 nm | absorption maximum (in Cc1ccccc1): 292 nm | absorption maximum (in ClCCl): 292 nm

CCCCCCOc1cc2[nH]c(cc2CCOC)c2nc(ccc3[nH]c(cc3CCOC)c3nc1C(CCOC)=C3)C(CCOC)=C2
absorption maximum (in Cc1ccccc1): 684 nm

C1=Cc2ccc(N(c3ccccc3)c3ccccc3)cc2C2(c3cc(N(c4ccccc4)c4ccccc4)ccc31)c1ccccc1-c1ccccc12
absorption maximum (in ClCCl): 406 nm

C#CC1CN2CCC1CC2[C@@H](O)c1ccnc2ccc(OC)cc12 (some centres undefined)
absorption maximum (in C1CCOC1): 332 nm | absorption maximum (in CC#N): 332 nm | absorption maximum (in CCCC#N): 332 nm | absorption maximum (in Cc1ccccc1): 332 nm | absorption maximum (in ClCCl): 333 nm

Clc1nc(Cl)nc(Nc2ccc3cc4ccccc4cc3c2)n1
absorption maximum (in C1COCCO1): 396 nm | absorption maximum (in CC#N): 398 nm | absorption maximum (in CCCCOCCCC): 395 nm | absorption maximum (in CCOC(C)=O): 394 nm

CCCCCCn1c2cc(/C=C(\C#N)c3ccccc3)ccc2c2ccc(/C=C(\C#N)c3ccccc3)cc21
absorption maximum (in ClC(Cl)Cl): 423.73 nm

COc1ccc2ccc3oc(=O)c(-c4ccccc4)nc3c2c1
absorption maximum (in c1ccccc1): 404 nm

COc1ccc(-n2c3ccccc3c3c(C)cc4ccccc4c32)cc1
absorption maximum (in ClCCl): 303 nm

Cc1ccc(-c2oc3cccc4c5c(-c6ccc(C)cc6)c(=N)oc6cccc(c2c34)c65)cc1
absorption maximum (in ClC(Cl)Cl): 400 nm

COc1ccc(-c2nc(-c3ccc(C#N)cc3)[nH]c2-c2ccc(OC)cc2)cc1
absorption maximum (in CO): 354 nm

O=C1c2ccccc2-c2c(-c3cccc(Cl)c3O)[nH]c(=O)n21
absorption maximum (in CC#N): 388 nm | absorption maximum (in CO): 393 nm | absorption maximum (in ClCCl): 391 nm

CC1=[N+]2C(=C(c3ccc(N(c4ccccc4)c4ccccc4)cc3)c3ccc(C)n3[B-]2(F)F)C=C1c1cc2n(c1)[B-](F)(F)[N+]1=CC=CC1=C2c1c(C)cc(C)cc1C
absorption maximum (in C1CCCCC1): 593 nm | absorption maximum (in CCOC(C)=O): 596 nm

CN(C)c1ccc(C2=Nc3scc(-c4ccc([N+](=O)[O-])cc4)[n+]3[B-](F)(F)O2)cc1
absorption maximum (in C1CCOC1): 412 nm | absorption maximum (in CC#N): 411 nm | absorption maximum (in Cc1ccccc1): 415 nm | absorption maximum (in ClCCl): 417 nm

CC(C)(C)c1ccc2oc3nc4oc5ccc(N(c6ccccc6)c6ccccc6)cc5c4cc3c2c1
absorption maximum (in ClC(Cl)Cl): 342 nm

COc1ccc(C#Cc2ccc3ccc(=O)oc3c2)cc1
absorption maximum (in CC#N): 308 nm

Cc1ccc(/C=C/c2nc3ccccc3s2)cc1
absorption maximum (in C1CCCCC1): 345 nm | absorption maximum (in CO): 345 nm

CCCCCCn1c(=O)c2c3nc4cc5sc6c(nc5cc4sc3c3c(=O)n(CCCCCC)c(=O)c3c2c1=O)c1c(=O)n(CCCCCC)c(=O)c1c1c(=O)n(CCCCCC)c(=O)c61
absorption maximum (in ClCCl): 633 nm

COc1ccc(/C=C/c2cc(/C=C/c3ccc(OC)cc3)nc(/C=C/c3ccc(OC)cc3)n2)cc1
absorption maximum (in ClCCl): 339 nm

CCN(CC)c1ccc2c(c1)oc(=O)c1cnc3c(c(C)nn3-c3ccccc3)c12
absorption maximum (in ClCCl): 404 nm

CC1=C(C)c2cccc3c2c(cc2nc4ccccc4nc23)O1
absorption maximum (in ClCCl): 497 nm

CC/[NH+]=c1\cc2oc3cc(NCCN)c4ccccc4c3nc-2cc1C
absorption maximum (in CCO): 590 nm | absorption maximum (in O): 590 nm

CCCC1=CC2=C(c3c(C)cc(C)cc3C)c3cc(CCC)c(-c4ccc5ccc6cccc7ccc4c5c67)n3[B-](F)(F)[N+]2=C1c1ccc2ccc3cccc4ccc1c2c34
absorption maximum (in ClC(Cl)Cl): 562 nm

CCCCCCCCCCCCCCCCOC(=O)c1ccc(N(c2ccccc2)c2ccccc2)cc1
absorption maximum (in C1CCCCC1): 334 nm | absorption maximum (in C1CCOC1): 334 nm | absorption maximum (in CC#N): 332 nm | absorption maximum (in CCOC(C)=O): 334 nm | absorption maximum (in ClCCCl): 336 nm | absorption maximum (in c1ccccc1): 334 nm

CCCCCCCCc1ccc(-n2c3c4ccccc4nc(-c4ccc(C#N)cc4)c3c3c2c2c(-c4ccc(C#N)cc4)nc4ccccc4c2n3-c2ccc(CCCCCCCC)cc2)cc1
absorption maximum (in ClC(Cl)Cl): 314 nm

O=P1(c2ccccc2)c2cc(N3c4ccccc4Sc4ccccc43)ccc2-c2ccc(N3c4ccccc4Sc4ccccc43)cc21
absorption maximum (in Cc1ccccc1): 399 nm

COc1ccc(-c2nc(N)nc(C#N)c2C#N)cc1OC
absorption maximum (in C1COCCO1): 347 nm | absorption maximum (in CC#N): 359 nm | absorption maximum (in CC(C)=O): 348 nm | absorption maximum (in CCO): 350 nm | absorption maximum (in CCOC(C)=O): 356 nm | absorption maximum (in CO): 346 nm

O=[N+]([O-])c1ccc2nc3cc4ccccc4cc3c(-c3ccccc3)c2c1
absorption maximum (in ClCCl): 400 nm

CCC1=[N+]2c3c(c4ccc(Oc5c(C)cc(C)cc5C)c5cc6c(Oc7c(C)cc(C)cc7C)ccc7c8cc(CC)n(c8c3c(c54)c67)[B-]2(F)F)=C1
absorption maximum (in Cc1ccccc1): 867 nm

O=P(c1c2ccccc2cc2ccccc12)(c1c2ccccc2cc2ccccc12)c1c2ccccc2cc2ccccc12
absorption maximum (in C1CCOC1): 411 nm

Cc1cc2c(o1)=CC1=C(C(F)(F)F)c3cc4oc(C)cc4n3[B-](F)(F)[N+]=21
absorption maximum (in ClC(Cl)Cl): 613 nm

CCCCCCCCCCCCOc1cc(C(=O)Nc2ccc(-c3ccc4c(c3)C(=O)c3cc(-c5ccc(NC(=O)c6cc(OCCCCCCCCCCCC)c(OCCCCCCCCCCCC)c(OCCCCCCCCCCCC)c6)cc5)ccc3-4)cc2)cc(OCCCCCCCCCCCC)c1OCCCCCCCCCCCC
absorption maximum (in C1CCOC1): 447 nm

COc1ccc(-c2c3nc(cc4ccc([nH]4)c(-c4ccc(OC)c(OCCCC(=O)O)c4)c4nc(cc5ccc2[nH]5)CC4)CC3)cc1OCCCC(=O)O
absorption maximum (in CS(C)=O): 736 nm

From the Deep4Chem optical property database
